Consider nine compounds from patent US10131663B2, “Chemical compounds” (AstraZeneca AB, priority 2016, dated 2018).

Data set [1] is described as follows: Thermodynamic solubility (shake-flask). It is filed as physicochemical. To be noted: aqueous phosphate buffer, 25 °C, pH 7.4, aqueous buffer, thermodynamic from solid, aqueous phosphate buffer pH 7.4, 24 hours. The gist of the method: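 Shake-flask method starting from 10 mM DMSO stocks, which are dried before use. Residue equilibrated 24 h at 25° C. in aqueous phosphate buffer, pH 7.4. Dissolved fraction separated and quantified by UPLC/MS/MS, with QC samples in each run.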

For data set [2], the target named is T1, Estrogen Receptor (ERα) in MCF-7 cells (Homo sapiens (Human), UniProt P03372). As to the kind of experiment: Western blotting assay, ER down-regulation in MCF-7. To be noted: 100 nM compound, 48 h, normalised to 100 nM fulvestrant. Format: cell-based. How it is done:
(§1) Cells were incubated with compounds (100 nM) or vehicle control (0.1% DMSO) for 48 h at 37° C., 5% CO2 before washing once with PBS and lysing with 80 μl lysis buffer (25 mM Tris/HCl, 3 mM EDTA, 3 mM EGTA, 50 mM NaF, 2 mM sodium orthovanadate, 0.27 M sucrose, 10 mM β-glycerophosphate, 5 mM sodium pyrophosphate, 0.5% TritonX-100, pH 6.8) on ice.
(§2) Samples were boiled for 10 min at 95° C. and then frozen at −20° C. until ready for use.
(§3) The blot was stained with Ponceau S (P7170, Sigma) and cut according to appropriate molecular weight markers.
(§4) Membranes were blocked for 1 hour at room temp in 5% Marvel (w/v) in phosphate-buffered saline containing 0.05% Tween™ 20 (PBS/Tween). Blots were then incubated with anti-ERα (SP1) rabbit monoclonal antibody (Thermofisher) diluted 1:1000 at 4° C. overnight (with gentle shaking) followed by several washes with PBS/Tween. […] All antibodies were made up in 5% Marvel (w/v) in PBS/Tween.
(§5) Down-regulation of the ERα receptor was normalised to the vehicle control (0% down-regulation) and the 100 nM fulvestrant control (100% down-regulation) run within the same gel.
Background: Immunoblotting shows a protein as a band on a membrane.

The target in data set [3] is hERG potassium channel (Homo sapiens (Human), UniProt Q12809). In words: hERG binding assay (automated patch clamp, CHO cells). The following applies: CHO cell line, Nanion Syncropatch 384PE. Format: cell-based. The gist of the method:
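CHO cells on automated patch clamp; compounds tested in quadruplicate. Currents evoked every 15 s from −80 mV holding by a 500 ms step to 60 mV then 500 ms to −40 mV.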
On the technique in general: Block of hERG is tested as a sign of cardiac risk.

Data set [4] deals with estrogen receptor (ERα) in CAMA-1 cells (Homo sapiens (Human), UniProt P03372). As to the kind of experiment: Western blotting assay, ER down-regulation in CAMA-1. The following applies: 100 nM compound, 48 h, normalised to 100 nM fulvestrant. Format: cell-based. How it is done: as §1, §2, §3, §4, §5
Chain of estrogen receptor (ERα) in CAMA-1 cells (P03372 whole entry): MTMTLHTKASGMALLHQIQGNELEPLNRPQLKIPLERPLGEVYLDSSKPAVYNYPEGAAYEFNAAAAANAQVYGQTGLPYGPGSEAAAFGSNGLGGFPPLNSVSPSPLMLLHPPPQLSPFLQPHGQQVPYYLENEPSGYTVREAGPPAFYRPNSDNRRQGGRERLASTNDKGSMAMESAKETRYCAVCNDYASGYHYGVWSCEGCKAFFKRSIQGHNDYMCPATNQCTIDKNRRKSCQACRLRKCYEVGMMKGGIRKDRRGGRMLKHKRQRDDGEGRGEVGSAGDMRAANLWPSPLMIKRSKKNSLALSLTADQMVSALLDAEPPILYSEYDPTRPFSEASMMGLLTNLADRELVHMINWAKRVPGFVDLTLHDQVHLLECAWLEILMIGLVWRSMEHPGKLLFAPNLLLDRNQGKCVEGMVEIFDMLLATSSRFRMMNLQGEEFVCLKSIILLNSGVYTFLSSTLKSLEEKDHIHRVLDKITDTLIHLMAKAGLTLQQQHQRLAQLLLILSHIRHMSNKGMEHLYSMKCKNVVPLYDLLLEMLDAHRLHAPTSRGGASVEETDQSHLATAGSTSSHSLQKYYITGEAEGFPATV
A short description of data set [5]: Human plasma protein binding (equilibrium dialysis). The following applies: dialysis 18 hours. Format: in vitro ADME. The procedure, abridged:
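Fraction unbound (fu %) in human plasma, from LC/MSMS of plasma and buffer sides (7-point plasma calibration) after 18 h rapid equilibrium dialysis. Single determinations, with compounds pooled up to 10 per plasma pool.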
(In general: In equilibrium dialysis only unbound substance equilibrates across the membrane.)

Data set [6] can be described thus: log D (shake flask, 1-octanol/aqueous buffer). It is filed as physicochemical. The gist of the method: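 Distribution between 1-octanol and aqueous buffer at pH 7.4 was measured by shake flask, with compounds run in mixtures of ten. Relative concentrations in each phase were quantified by UPLC with quantitative MS. Caffeine served as a low-log D QC sample in all runs.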

The target of data set [7] is recombinant human Estrogen Receptor alpha ligand binding domain (ER alpha-LBD (GST)) (Homo sapiens (Human), UniProt P03372). As to the kind of experiment: ERα binding assay (LanthaScreen TR-FRET competition). The following applies: TR-FRET, displacement of Fluormone ES2. The gist of the method:
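Competition binding to GST-tagged human ERα ligand-binding domain, read by LanthaScreen TR-FRET: Tb-anti-GST antibody labels the receptor and compounds displace a fluorescent tracer, lowering the signal. IC50 was taken from dose-response curve fitting.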

For data set [8], the target named is T1, Estrogen Receptor (ERα) in MCF-7 cells. As to the kind of experiment: MCF-7 ER down-regulation assay (immuno-fluorescence). Format: cell-based. The gist of the method:
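Compounds dispensed acoustically from DMSO stocks onto MCF-7 cells; cells fixed 20 min at room temperature, then automated immunostaining for ERα with overnight incubation at 4° C. Read-out is mean total ER fluorescence intensity normalized to cell number (intensity per cell), with curve fitting for concentration-response values.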

Data set [9] is described as follows: Human Caco-2 bidirectional permeability A to B and B to A. It is filed as in vitro ADME. The following applies: Caco-2, 2 hours, pH 7.4. The procedure:
An automated assay was used to determine the bidirectional permeability (efflux and uptake) of compounds in Caco-2 cells carried out over 2 hours at pH 7.4.
The efflux ratio (ER) can be determined using the following equation: ER=Papp(B-A)/Papp(A-B) Where Papp (B-A) indicates the apparent permeability coefficient in basolateral to apical direction, and Papp (A-B) indicates the apparent permeability coefficient in apical to basolateral direction. Human Caco-2 Passive Permeability A to B Papp

Where [10] appears, read: 1-octanol/aqueous buffer, pH 7.4, pH 7.4, 1-octanol/aqueous buffer.

For orientation: solubility means the concentration that dissolves in the medium under given conditions. The low end stands for little dissolved substance, the high end for much dissolved substance. What is called IC50 is the concentration that gives 50% inhibition. Broadly, the logD is the decadic logarithm of the distribution of all forms, ionised or not, between an organic phase and buffer at a given pH. A lower logD goes with lower lipophilicity. One may read the Papp as a coefficient for how fast a substance crosses the barrier. Higher therefore signals ready permeation.

In brackets after ≈: the same amount, converted by molar mass.

Chain of recombinant human Estrogen Receptor alpha ligand binding domain (ER alpha-LBD (GST)) (P03372 307-554): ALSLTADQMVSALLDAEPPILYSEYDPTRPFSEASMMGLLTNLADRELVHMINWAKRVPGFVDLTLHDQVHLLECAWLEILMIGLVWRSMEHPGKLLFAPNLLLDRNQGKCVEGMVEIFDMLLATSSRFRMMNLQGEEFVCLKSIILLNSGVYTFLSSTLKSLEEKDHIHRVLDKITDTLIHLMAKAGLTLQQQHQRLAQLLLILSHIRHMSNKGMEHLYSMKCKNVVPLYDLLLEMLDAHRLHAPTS
T1 sequence (P03372 whole entry): as the sequence (P03372 whole entry) above
Chain of hERG potassium channel (Q12809 whole entry): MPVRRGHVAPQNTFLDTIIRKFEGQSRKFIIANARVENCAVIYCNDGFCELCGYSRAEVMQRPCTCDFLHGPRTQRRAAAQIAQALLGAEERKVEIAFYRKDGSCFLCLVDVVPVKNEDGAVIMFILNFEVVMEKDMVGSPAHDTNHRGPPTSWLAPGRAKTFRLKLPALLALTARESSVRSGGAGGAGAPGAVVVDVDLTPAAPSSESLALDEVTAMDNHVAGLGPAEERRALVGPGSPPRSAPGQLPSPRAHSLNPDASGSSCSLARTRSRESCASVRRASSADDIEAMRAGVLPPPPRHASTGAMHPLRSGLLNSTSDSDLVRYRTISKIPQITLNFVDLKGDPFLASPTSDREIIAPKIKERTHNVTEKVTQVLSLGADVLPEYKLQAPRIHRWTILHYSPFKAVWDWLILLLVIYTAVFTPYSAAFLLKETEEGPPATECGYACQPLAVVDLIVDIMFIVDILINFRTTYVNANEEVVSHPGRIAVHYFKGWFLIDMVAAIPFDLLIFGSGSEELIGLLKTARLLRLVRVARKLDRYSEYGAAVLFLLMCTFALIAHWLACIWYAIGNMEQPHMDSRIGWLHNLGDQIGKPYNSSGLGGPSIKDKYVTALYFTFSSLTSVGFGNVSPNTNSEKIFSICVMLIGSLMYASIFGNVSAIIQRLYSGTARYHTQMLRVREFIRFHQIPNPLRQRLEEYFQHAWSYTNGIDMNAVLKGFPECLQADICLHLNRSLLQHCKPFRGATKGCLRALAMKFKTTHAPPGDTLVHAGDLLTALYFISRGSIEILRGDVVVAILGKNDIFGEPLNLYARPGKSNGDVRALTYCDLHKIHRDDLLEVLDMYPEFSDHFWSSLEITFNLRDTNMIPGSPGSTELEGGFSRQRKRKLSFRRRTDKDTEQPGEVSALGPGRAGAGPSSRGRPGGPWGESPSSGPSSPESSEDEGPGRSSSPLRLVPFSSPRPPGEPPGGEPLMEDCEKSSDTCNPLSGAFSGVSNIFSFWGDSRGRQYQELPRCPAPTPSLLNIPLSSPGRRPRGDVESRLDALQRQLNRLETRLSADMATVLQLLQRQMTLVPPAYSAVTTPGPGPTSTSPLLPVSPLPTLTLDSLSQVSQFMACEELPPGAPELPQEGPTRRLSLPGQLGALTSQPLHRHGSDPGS

Take `C[C@@H]1Cc2c(ccc3[nH]ncc23)[C@@H](c2ncc(OC3CN(CCCF)C3)cc2F)N1CC(F)(F)CO` [Example 59, 2,2-difluoro-3-((6S,8R)-6-(3-fluoro-5-((1-(3-fluoropropyl)azetidin-3-yl)oxy)pyridin-2-yl)-8-methyl-3,6,8,9-tetrahydro-7H-pyrazolo[4,3-f]isoquinolin-7-yl)propan-1-ol]: in [1], the solubility at 24 h was found to be 971 µM (≈ 493 µg/mL). For the same compound, the “MCF7 Western % ER deg vs Fv” value in [2] was found to be 104%. The figures for the half-inhibitory concentration (IC50) in data set [3], in data set [7] and in data set [8] were > 40000 nM, 7.2 nM and 1.6 nM, respectively. Further, in data set [4], the “CAMA1 Western % ER deg vs Fv” value is 102%. For the same compound, the “Human plasma protein binding (% free)” value in [5] was 33 % free. The compound further showed a logD in [6] (setting [10]) of 2.4.
For `C[C@@H]1Cc2c(ccc3[nH]ncc23)[C@@H](c2cnc(NC3CN(CCCF)C3)cn2)N1CC(F)(F)F` [Example 42, N-(1-(3-fluoropropyl)azetidin-3-yl)-5-((6S,8R)-8-methyl-7-(2,2,2-trifluoroethyl)-6,7,8,9-tetrahydro-3H-pyrazolo[4,3-f]isoquinolin-6-yl)pyrazin-2-amine], the solubility at 24 h in [1] turned out to be 712 µM (≈ 340 µg/mL). For the same compound, the “MCF7 Western % ER deg vs Fv” value in data set [2] is on record as 92%. Moreover, the results for the half-inhibitory concentration (IC50) in data set [3], in data set [7] and in data set [8] were 7900 nM, 3.8 nM and 0.28 nM, respectively. Besides, in [4], the “CAMA1 Western % ER deg vs Fv” value amounted to 79%. In addition, the logD in data set [6] (setting [10]) was 2.4.
With `CC(C)CN1[C@H](c2ccc(NC3CN(CCCF)C3)cn2)c2ccc3[nH]ncc3c2C[C@H]1C` [Example 69, N-(1-(3-fluoropropyl)azetidin-3-yl)-6-((6S,8R)-7-isobutyl-8-methyl-6,7,8,9-tetrahydro-3H-pyrazolo[4,3-f]isoquinolin-6-yl)pyridin-3-amine], the solubility at 24 h in [1] is > 1000 µM. Further, the “MCF7 Western % ER deg vs Fv” value in data set [2] is on record as 95%. In addition, the values for the IC50 in data set [3], in [7] and in data set [8] were 24000 nM, 8.9 nM and 0.55 nM, respectively. In addition, in data set [4], the “CAMA1 Western % ER deg vs Fv” value worked out at 98%. For the same compound, the “Human plasma protein binding (% free)” value in data set [5] is reported as 37 % free. In data set [6] (setting [10]), this compound yielded a pH-dependent lipophilicity (logD) of 2.9.
In [1], `C[C@@H]1Cc2c(ccc3[nH]ncc23)[C@@H](c2c(F)cc(NC3CN(CCCF)C3)cc2F)N1CC(F)F` [Example 49, N-(4-((6S,8R)-7-(2,2-difluoroethyl)-8-methyl-6,7,8,9-tetrahydro-3H-pyrazolo[4,3-f]isoquinolin-6-yl)-3,5-difluorophenyl)-1-(3-fluoropropyl)azetidin-3-amine] returned a solubility at 24 h of 163 µM (≈ 80.4 µg/mL). The “MCF7 Western % ER deg vs Fv” value in [2] came to 98%. The 50% inhibitory concentration (IC50) in data set [3] turned out to be 8200 nM; in [7] it was 1.5 nM; in [8] it was 0.075 nM. The “CAMA1 Western % ER deg vs Fv” value in [4] was found to be 99%. In data set [6] (setting [10]), this compound registered a pH-dependent lipophilicity (logD) of 3.8.
In the case of `C[C@@H]1Cc2c(ccc3[nH]ncc23)[C@@H](c2ccc(N(C)C3CN(CCCF)C3)cn2)N1CC(F)(F)F` [Example 34, N-(1-(3-fluoropropyl)azetidin-3-yl)-N-methyl-6-((6S,8R)-8-methyl-7-(2,2,2-trifluoroethyl)-6,7,8,9-tetrahydro-3H-pyrazolo[4,3-f]isoquinolin-6-yl)pyridin-3-amine], the solubility at 24 h in [1] was 471 µM (≈ 231 µg/mL). The “MCF7 Western % ER deg vs Fv” value in data set [2] is 85%. Moreover, the half-maximal inhibitory concentration (IC50) was 7700 nM in [3], 1.9 nM in data set [7] and 0.22 nM in [8]. Moreover, the “CAMA1 Western % ER deg vs Fv” value in data set [4] was determined as 82%. Moreover, the “Human plasma protein binding (% free)” value in [5] amounted to 15 % free. Besides, the logD in [6] (pH 7.4, 1-octanol/aqueous buffer) came to 3.2.
In data set [1], `C[C@@H]1Cc2c(ccc3[nH]ncc23)[C@@H](c2c(F)cc(NC3CN(CCCF)C3)cc2F)N1CC(F)(F)CO` [Example 5, 3-((6S,8R)-6-(2,6-difluoro-4-((1-(3-fluoropropyl)azetidin-3-yl)amino)phenyl)-8-methyl-3,6,8,9-tetrahydro-7H-pyrazolo[4,3-f]isoquinolin-7-yl)-2,2-difluoropropan-1-ol] had a solubility at 24 h of 297 µM (≈ 155 µg/mL). Moreover, in data set [2], the “MCF7 Western % ER deg vs Fv” value is 99%. For the same compound, the IC50 in [3] is 13000 nM; in data set [7] it was 2.2 nM; in data set [8] it was 0.077 nM. Also, the “CAMA1 Western % ER deg vs Fv” value in [4] was found to be 109%. The “Human plasma protein binding (% free)” value in data set [5] is given as 8.6 % free. In addition, the pH-dependent lipophilicity (logD) in data set [6] (setting [10]) is 3.3.
As for `C[C@@H]1Cc2c(ccc3[nH]ncc23)[C@@H](c2ncc(NC3CN(CCCF)C3)cc2F)N1CC(F)F` [Example 46, 6-((6S,8R)-7-(2,2-difluoroethyl)-8-methyl-6,7,8,9-tetrahydro-3H-pyrazolo[4,3-f]isoquinolin-6-yl)-5-fluoro-N-(1-(3-fluoropropyl)azetidin-3-yl)pyridin-3-amine], the solubility at 24 h in data set [1] was > 1000 µM. Further, the “MCF7 Western % ER deg vs Fv” value in [2] came out at 105%. Moreover, the IC50 is > 40000 nM in data set [3], 3.6 nM in [7] and 0.4 nM in data set [8]. Moreover, the “CAMA1 Western % ER deg vs Fv” value in data set [4] came to 102%. For the same compound, the “Human plasma protein binding (% free)” value in [5] is given as 31 % free. Besides, the pH-dependent lipophilicity (logD) in [6] (setting [10]) was 2.5.
Compound `C[C@@H]1Cc2c(ccc3[nH]nc(F)c23)[C@@H](c2ccc(NC3CN(CCCF)C3)cn2)N1CC(F)(F)F` [Example 32] came in with a solubility at 24 h in data set [1] of 692 µM (≈ 342 µg/mL). The “MCF7 Western % ER deg vs Fv” value in data set [2] worked out at 89%. In data set [3], this compound had a half-maximal inhibitory concentration (IC50) of 14000 nM. For the same compound, the “CAMA1 Western % ER deg vs Fv” value in data set [4] came out at 89%. Further, the Papp at 2 h in [9] amounted to 3.4 ×10⁻⁶ cm/s. In [5], the “Human plasma protein binding (% free)” value worked out at 6.5 % free. The same compound had a logD in data set [6] (setting [10]) of 3.5.
In data set [1], `C[C@@H]1Cc2c(ccc3[nH]ncc23)[C@@H](c2ccc(NC3CN(CCCF)C3)nc2F)N1CC(F)(F)F` [Example 40, 6-fluoro-N-(1-(3-fluoropropyl)azetidin-3-yl)-5-((6S,8R)-8-methyl-7-(2,2,2-trifluoroethyl)-6,7,8,9-tetrahydro-3H-pyrazolo[4,3-f]isoquinolin-6-yl)pyridin-2-amine] displayed a solubility at 24 h of 479 µM (≈ 237 µg/mL). The “MCF7 Western % ER deg vs Fv” value in data set [2] is reported as 98%. The 50% inhibitory concentration (IC50) in data set [3] was 4500 nM; in data set [7], 1.3 nM; in data set [8], 0.1 nM. Moreover, the “CAMA1 Western % ER deg vs Fv” value in data set [4] was 120%. The “Human plasma protein binding (% free)” value in [5] was 6.4 % free. In data set [6] (setting [10]), this compound yielded a logD of 3.5.
